The test has as its target T1, human A2a receptor (Homo sapiens, UniProt P29274).
T1 construct: purchased Perkin-Elmer RBHA2AM400UA; host or cells: HEK293 cell membranes
Kind of test: A2a receptor competition binding assay using Scintillation Proximity technology. The following applies: membranes from HEK293 cells expressing human A2a receptor; 0.5 nM tritiated radioligand; SPA beads; 1 h room temperature. How it is done: Binding affinities of compounds of the invention for the human A2a receptor were determined in a competition binding assay using Scintillation Proximity technology. Thus, 0.3 μg of membranes from HEK293 cells expressing the human A2a receptor were incubated with a compound of the invention at concentrations ranging from 3000 nM to 0.15 nM in a reaction mixture containing also 0.5 nM of a tritiated form of 5-amino-7-[2-phenethyl]-2-(furan-2-yl)-7H-pyrazolo[4,3-e][1,2,4]triazolo[1,5-c]pyrimidine (the tritiated compound) and 100 μg of wheat germ agglutin-coated yttrium silicate SPA beads for one hour at room temperature with agitation. The beads were then allowed to settle to the bottom of the wells for 1 hr, after which the membrane-associated radioactivity was determined by scintillation counting in a TopCount microplate reader. Ki values were determined using the Cheng-Prusoff equation.
Summary of Materials and Methods Used in A2a Activity Determination:
HEK293 cells expressing the human, rat, dog or monkey adenosine 2a receptor (Purchased from Perkin-Elmer # RBHA2AM400UA).
The Tritiated compound was prepared in-house by MRL Radiochemistry according to published methods.
Wheat germ agglutinin-coated yttrium silicate SPA beads (GE Healthcare#RPNQ0023). Dilute to 25 mg/ml in assay buffer.
Assay Buffer was prepared in house: Dulbecco's calcium and magnesium free phosphate buffered saline+10 mM MgCl2
Adenosine deaminase from calf intestine, 10 mg/2 ml (Roche) 10 102 105 001).
A2a antagonist standard (9-chloro-1-(2-furanyl)-[1,2,4]triazolo1,5-c]quinazolin-5-amine from Tocris Bioscience)
Make eight 1:3 serial dilutions in 100% DMSO from a 3 mM compound stock
Transfer 50 nl of compound into a 384-well OptiPlate (Perkin Elmer).
Typically, final concentrations of compound used in the assay ranged from 3000 nM to 0.152 nM.
Dilute a solution of the Tritiated compound to 1.25 nM in assay buffer. This is a 2.5× solution. The final concentration in the assay is 0.5 nM. Calculate the concentration by counting two 5 μl aliquots.
Use 0.25 ug of membrane/well. Dilute membranes to 9.7 μg/ml in assay buffer. Treat with 20 ug/ml adenosine deaminase (ADA) for 15 minutes at room temperature to degrade endogenous adenosine.
Use 100 μg/well wheat germ agglutinin-coated yttrium silicate SPA beads.
Mix ADA-treated membranes and SPA beads together for 30 min prior to assay.
To the Perkin-Elmer Optiplate-384 containing the compound titration add 20 μl of 2.5× solution of the Tritiated compound and 30 μl of the membrane-bead mixture. Incubate for one hour at room temperature with agitation.
Include total binding (assay buffer+1% DMSO) and non-specific binding (CGS15943, 1 μM) wells.
Allow the beads to settle for one hour.
A curve fitting program (i.e., Prism, Activity Base, Chemcart) is used to determine the EC50. The Ki value is calculated using the Cheng-Prusoff equation: K i=EC50/(1+(radioligand concentration/Kd)).

Where “and” joins values, the source holds several entries; their conditions need not be identical. Identical values can stand only once.

T1 sequence (P29274 whole entry): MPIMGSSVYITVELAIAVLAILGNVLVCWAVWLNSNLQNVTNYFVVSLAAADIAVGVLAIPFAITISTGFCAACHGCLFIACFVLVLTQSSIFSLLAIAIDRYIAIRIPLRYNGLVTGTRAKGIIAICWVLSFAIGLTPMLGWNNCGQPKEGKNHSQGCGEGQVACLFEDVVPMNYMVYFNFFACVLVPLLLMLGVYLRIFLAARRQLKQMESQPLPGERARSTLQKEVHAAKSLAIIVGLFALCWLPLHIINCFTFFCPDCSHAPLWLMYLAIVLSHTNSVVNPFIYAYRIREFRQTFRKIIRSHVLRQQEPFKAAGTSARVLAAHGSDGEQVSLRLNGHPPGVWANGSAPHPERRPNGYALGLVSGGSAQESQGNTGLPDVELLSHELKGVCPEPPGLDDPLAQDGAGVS

With `COc1cccc2c1nc(N)n1nc(CCN3CCn4cc(C(F)(F)F)nc4C3)nc21` [Ex-58, 7-methoxy-2-(2-(2-(trifluoromethyl)-5,6-dihydroimidazo[1,2-a]pyrazin-7(8H)-yl)ethyl)-[1,2,4]triazolo[1,5-c]quinazolin-5-amine], the EC50 is 0.0009 µM.

Molecule `COc1cccc2c1nc(N)n1nc(CCN3CCCn4nccc43)nc21` [Ex-59, 2-(2-(6,7-dihydropyrazolo[1,5-a]pyrimidin-4(5H)-yl)ethyl)-7-methoxy-[1,2,4]triazolo[1,5-c]quinazolin-5-amine] gave an EC50 of 0.0096 µM.

As to `COc1cccc2c1nc(N)n1nc(CCN3CCCn4nc(C)cc4C3)nc21` [Ex-60, 7-methoxy-2-(2-(2-methyl-7,8-dihydro-4H-pyrazolo[1,5-a][1,4]diazepin-5(6H)-yl)ethyl)-[1,2,4]triazolo[1,5-c]quinazolin-5-amine], the EC50 was 0.0023 µM.

For the molecule `COc1cccc2c1nc(N)n1nc(CCN3CCCn4nc(C#N)cc4C3)nc21` [Ex-61, 5-(2-(5-amino-7-methoxy-[1,2,4]triazolo[1,5-c]quinazolin-2-yl)ethyl)-5,6,7,8-tetrahydro-4H-pyrazolo[1,5-a][1,4]diazepine-2-carbonitrile], the concentration for a half-maximal effect (EC50) stood at 0.0025 µM. This EC50 and that of the molecule before are within 1.5-fold of each other.

`COc1cccc2c1nc(N)n1nc(CCN3Cc4ccccc4C(C)(C)C3)nc21` [Ex-62, 2-(2-(4,4-dimethyl-3,4-dihydroisoquinolin-2(1H)-yl)ethyl)-7-methoxy-[1,2,4]triazolo[1,5-c]quinazolin-5-amine]: the midpoint of the response, the EC50, lay at 0.0062 µM.

Molecule `COc1cccc2c1nc(N)n1nc(CCN3Cc4ccc(N5CCN(C)CC5)nc4C3)nc21` [Ex-63, 7-methoxy-2-(2-(2-(4-methylpiperazin-1-yl)-5H-pyrrolo[3,4-b]pyridin-6(7H)-yl)ethyl)-[1,2,4]triazolo[1,5-c]quinazolin-5-amine] yielded an EC50 of 0.0058 µM.

`COc1cccc2c1nc(N)n1nc(CCN3Cc4ccc(N5CCOCC5)nc4C3)nc21` [Ex-64] returned an EC50 of 0.0069 µM. This EC50 and that of the molecule before are within 1.5-fold of each other.

On to `COc1cccc2c1nc(N)n1nc(CCN3Cc4ccc(N5CCCC5)nc4C3)nc21` [Ex-65], for which the EC50 is 0.0136 µM.

With `CCN1CCN(c2ccc3c(n2)CN(CCc2nc4c5cccc(OC)c5nc(N)n4n2)C3)CC1` [Ex-66], the EC50 came to 0.0166 µM.

For `COc1cccc2c1nc(N)n1nc(CCN3Cc4ccc(N5CCOC(C)(C)C5)nc4C3)nc21` [Ex-68], the response was half-maximal at 0.007 µM (EC50). Compared with the last molecule, the EC50 is about 2.4-fold lower.

`COc1cccc2c1nc(N)n1nc(CCN3Cc4ccc(N5C[C@@H](C)O[C@@H](C)C5)nc4C3)nc21` [Ex-69] returned an EC50 of 0.0052 µM.

On to `COc1cccc2c1nc(N)n1nc(CCN3Cc4ccc(N5CCN(CC6CC6)CC5)nc4C3)nc21` [Ex-70], for which a half-maximal response (EC50) required 0.0068 µM.

With `COc1cccc2c1nc(N)n1nc(CCN3Cc4ccc(N5CCN(c6ccc(F)cc6)CC5)nc4C3)nc21` [Ex-71], the EC50 was 0.0029 µM. This EC50 lies about 2.3-fold lower than the previous one.

Regarding `COc1cccc2c1nc(N)n1nc(CCN3Cc4ccc(N5CCC(N6CCOCC6)CC5)nc4C3)nc21` [Ex-72], the EC50 is 0.005 µM.

Molecule `CCN1CCN(c2ccnc3c2CCN(CCc2nc4c5cccc(OC)c5nc(N)n4n2)C3)CC1` [Ex-73, 2-(2-(4-(4-ethylpiperazin-1-yl)-5,6-dihydro-1,7-naphthyridin-7(8H)-yl)ethyl)-7-methoxy-[1,2,4]triazolo[1,5-c]quinazolin-5-amine] came in with an EC50 of 0.003 µM.

`CCN(CC)c1ccnc2c1CCN(CCc1nc3c4cccc(OC)c4nc(N)n3n1)C2` [Ex-74] returned an EC50 of 0.0043 µM. The EC50 values of the last two molecules are within 1.5-fold of each other.

As to `COc1cccc2c1nc(N)n1nc(CCN3CCc4c(N5CCC(F)(F)C5)ccnc4C3)nc21` [Ex-76], the EC50 is 0.0037 µM. This EC50 and that of the molecule before are within 1.5-fold of each other.

`COc1cccc2c1nc(N)n1nc(CC(=O)N3Cc4cccnc4C3)nc21` [Ex-77, 2-(5-amino-7-methoxy[1,2,4]triazolo[1,5-c]quinazolin-2-yl)-1-(5,7-dihydro-6H-pyrrolo[3,4-b]pyridin-6-yl)ethanone] gave an EC50 of 0.0362 µM.

Molecule `COc1cccc2c1nc(N)n1nc(CC(=O)N3CCc4ccccc4CC3)nc21` [Ex-78] had an EC50 of 0.0138 µM. Against the preceding molecule, the EC50 is about 2.6-fold lower.

Take `Nc1nc2c(OCF)cccc2c2nc(CCN3Cc4cccnc4C3)nn12` [Ex-79, 2-(2-(5H-pyrrolo[3,4-b]pyridin-6(7H)-yl)ethyl)-7-(fluoromethoxy)-[1,2,4]triazolo[1,5-c]quinazolin-5-amine]: the EC50 was determined as 0.0223 µM.

For the molecule `Nc1nc2c(Cl)cccc2c2nc(CCN3Cc4ccc(F)cc4C3)nn12` [Ex-80, 7-chloro-2-(2-(5-fluoroisoindolin-2-yl)ethyl)-[1,2,4]triazolo[1,5-c]quinazolin-5-amine], the EC50 amounted to 0.012 µM.

In turn, `Nc1nc2c(Cl)cccc2c2nc(CCN3CCCc4ccccc43)nn12` [Ex-82] registered a concentration giving a half-maximal response (EC50) of 0.0247 µM.

In turn, `Nc1nc2c(F)cccc2c2nc(CCN3Cc4cccnc4C3)nn12` [Ex-83, 2-[2-(5,7-dihydro-6H-pyrrolo[3,4-b]pyridin-6-yl)ethyl]-7-fluoro[1,2,4]triazolo[1,5-c]quinazolin-5-amine] showed an EC50 of 0.0159 µM.

As for `Nc1nc2c(F)cccc2c2nc(CCN3CCCc4ccccc43)nn12` [Ex-84], the EC50 was found to be 0.0063 µM.

As to `Nc1nc2c(F)cccc2c2nc(CCN3Cc4ccc(F)cc4C3)nn12` [Ex-85], a half-maximal effect (EC50) was put at 0.0222 µM. Compared with the last molecule, the EC50 is about 3.5-fold higher.

`CCc1nnc2n1CCN(CCc1nc3c4cccc(F)c4nc(N)n3n1)C2` [Ex-86] returned an EC50 of 0.0067 µM.

As for `Nc1nc2c(F)cccc2c2nc(CCN3CCc4ccccc4C3)nn12` [Ex-87], the response was half-maximal at 0.0191 µM (EC50).

As to `Nc1nc2c(F)cccc2c2nc(CCN3Cc4cnc(C(F)(F)F)nc4C3)nn12` [Ex-88], the EC50 turned out to be 0.0423 µM.

The molecule `Nc1nc2c(F)cccc2c2nc(CCN3Cc4cccc(F)c4C3)nn12` [Ex-89] yielded an EC50 of 0.0477 µM.

Consider `Cc1cccc2c1nc(N)n1nc(CCN3CCc4ccccc4C3)nc21` [Ex-90, 2-(2-(3,4-dihydroisoquinolin-2(1H)-yl)ethyl)-7-methyl-[1,2,4]triazolo[1,5-c]quinazolin-5-amine], for which the EC50 was found to be 0.0279 µM.

Molecule `Nc1nc2cc(F)ccc2c2nc(CCN3Cc4ccc(F)cc4C3)nn12` [Ex-91, 8-fluoro-2-[2-(5-fluoro-1,3-dihydro-2H-isoindol-2-yl)ethyl][1,2,4]triazolo[1,5-c]quinazolin-5-amine] showed an EC50 of 0.0261 µM.

`Nc1nc2cc(F)ccc2c2nc(CCN3Cc4cccnc4C3)nn12` [Ex-92]: the midpoint of the response, the EC50, lay at 0.0737 µM.

Regarding `Nc1nc2cc(F)ccc2c2nc(CCN3CCc4ccccc4C3)nn12` [Ex-93], the EC50 turned out to be 0.0375 µM.

`Nc1nc2cc(F)ccc2c2nc(CCN3CCCc4ccccc43)nn12` [Ex-94] registered an EC50 of 0.0273 µM.

For the molecule `CCc1nnc2n1CCN(CCc1nc3c4ccc(F)cc4nc(N)n3n1)C2` [Ex-95], a half-maximal response (EC50) required 0.0165 µM.

The molecule `Nc1nc2cc(F)ccc2c2nc(CCN3Cc4cccc(F)c4C3)nn12` [Ex-96] showed an EC50 of 0.0562 µM. Against the preceding molecule, the EC50 is about 3.4-fold higher.

With `COc1ccc2c(nc(N)n3nc(CCN4Cc5cccnc5C4)nc23)c1OC` [Ex-97], the 50% effective concentration (EC50) amounted to 0.238 µM.

As to `COc1cc(F)cc2c1nc(N)n1nc(CCN3Cc4cccnc4C3)nc21` [Ex-98], the EC50 came out at 0.019 µM. Against the preceding molecule, the EC50 is about 13-fold lower.

For the molecule `Nc1nc2cc(F)c(F)cc2c2nc(CCN3Cc4cccnc4C3)nn12` [Ex-99], the EC50 is 0.112 µM.

Molecule `Nc1nc2c(F)cc(F)cc2c2nc(CCN3Cc4cccnc4C3)nn12` [Ex-100] displayed an EC50 of 0.0312 µM.

The molecule `COc1cccc2c1nc(N)n1nc(C[C@H](C(F)F)N3Cc4cccnc4C3)nc21` [Ex-102] showed an EC50 of 0.0552 µM.

As for `COc1cccc2c1nc(N)n1nc(C[C@@H](C(F)F)N3Cc4cccnc4C3)nc21` [Ex-103], a half-maximal response (EC50) required 0.0083 µM.

For `COc1cccc2c1nc(N)n1nc(CC(CF)N3Cc4cccnc4C3)nc21` (stereo not drawn) [Ex-104], the EC50 was 0.0101 µM and 0.0143 µM.

In turn, `COc1cccc2c1nc(N)n1nc(C[C@H](C)N3Cc4cccnc4C3)nc21` [Ex-106] yielded an EC50 of 0.0195 µM. That is a double-digit nanomolar value.

Take `COc1cccc2c1nc(N)n1nc(C[C@@H](C)N3Cc4cccnc4C3)nc21` [Ex-107]: the EC50 turned out to be 0.0069 µM.

For the molecule `COc1cccc2c1nc(N)n1nc(CC(N3Cc4cccnc4C3)C(F)(F)F)nc21` (stereo not drawn) [Ex-108], a half-maximal effect (EC50) was put at 0.0179 µM. Against the preceding molecule, the EC50 is about 2.6-fold higher.

In the case of `COc1cccc2c1nc(N)n1nc(C[C@H](N3Cc4cccnc4C3)C(F)(F)F)nc21` [Ex-109], the midpoint of the response, the EC50, lay at 0.0122 µM.

Molecule `COc1cccc2c1nc(N)n1nc(C[C@@H](N3Cc4cccnc4C3)C(F)(F)F)nc21` [Ex-110] returned an EC50 of 0.0399 µM.

For the origin of these results see US10011615B2, “Heterobicyclo-substituted [1,2,4]triazolo[1,5-c]quinazolin-5-amine compounds with A2A anatagonist properties” (Merck Sharp & Dohme Corp., priority 2012, dated 2018).
